# Measured values: patent US9107830B2, “Inhibitors of crystallization in a solid dispersion” (ABBVIE, INC., priority 1999, dated 2015)
# “Also recorded” adds a separate entry of the source.
# Tests used:
# [1] = XPD monitoring for crystalline drug in samples held at 50° C.; format: physicochemical
# Experimental: An X-ray powder diffraction (XPD) pattern was obtained with a Scintag® XDS 2000 θ/θ diffraction system equipped with a 2 kW normal focus X-ray tube and a liquid nitrogen cooled germanium solid state detector. An additional study was performed with a dispersion containing 15% PVP. The samples were held at 50° C. (above the Tg of ABT-538) and X-ray diffraction patterns were measured over time to monitor for the appearance of crystalline ABT-538.
# [2] = X-ray powder diffraction of freshly prepared solid dispersions (physical form of drug in matrix); format: physicochemical
# Experimental: (§1) An X-ray powder diffraction (XPD) pattern was obtained with a Scintag® XDS 2000 θ/θ diffraction system equipped with a 2 kW normal focus X-ray tube and a liquid nitrogen cooled germanium solid state detector.
# The samples were prepared by dissolving ABT-538 in a small volume of 200 proof ethanol in a 250 ml round bottom flask. The flask was vortexed and then placed in a water bath maintained at 75° C. The PEG 8000 was added to the hot alcohol solution with continual swirling until the PEG melted. The flask was then attached to a rotary evaporator, immersed in the water bath (75° C.) under vacuum for 15 minutes to remove the ethanol. After the majority of ethanol had evaporated, the flask was immersed in an ice bath for 15 minutes. The contents of the flask were then vacuum dried at room temperature overnight to remove residual alcohol. The dispersion was removed from the flask, gently ground, and sized to 40-100 mesh size. The drug loads used for these dispersions were 10, 20 and 30% w/w.
# The solid dispersion of 30% ABT-538 in 95:5 PEG8000:PVP was prepared by dissolving the ABT-538 and PVP 17 PF in a small volume of 200 proof ethanol in a 250 ml round bottom flask. The remainder of the process was as described above. A 30% ABT-538 dispersion in 85:15 PEG8000:PVP was also prepared similarly as were dispersions of 10 or 20% PVP 17 PF in PEG 8000 without drug.
# (§2) Both fenofibrate and PEG 8000 were sized to 40-100 mesh prior to mixing with a spatula on weighing paper. The mixture was then added to a 25 ml beaker and heated to 85° C. in a water bath until the all the material had melted. The molten solution was then poured onto a chilled X-ray sample holder to rapidly solidify the solution. The solid sample was immediately used to monitor the crystallization rate via X-ray powder diffraction.
# Fenofibrate (40-100 mesh) was added to the 90:10 PEG 8000:PVP control dispersion (see above) which was also sized to 40-100 mesh and mixed with spatula on a piece of weighing paper. The mixture was then processed as described above for the 15% fenofibrate dispersion in PEG 8000.
# Both griseofulvin and PEG 8000 were sized to 40-100 mesh prior to mixing on a weighing paper with a spatula. The sample was then added to an 4 ml stainless steel vessel which was sealed under a N2 atmosphere. The vessel was then immersed into an oil bath maintained at 180° C. […]
# A similar plot is shown in FIG. 2 with PVP incorporated into the matrix. […] Crystallization kinetics were determined by heating the samples to 85° C., holding them isothermally for predetermined times followed by heating through the melting transition temperature of ABT-538. The heats of fusion were determined and ratioed against the heat of fusion of the drug melting in the physical mixture, giving the fraction crystallized. […]
# [3] = DSC crystallization kinetics, isothermal hold at 85° C.; format: physicochemical; settings: PVP in matrix versus PEG
# Experimental: DSC measurements were made using a Mettler DSC 30 unit. Samples (4-7 mg) were sealed in standard 40 μl aluminum crucibles with a single hole punched in the lids. An empty crucible of the same type was used as a reference.
# A similar plot is shown in FIG. 2 with PVP incorporated into the matrix. […] A similar plot is seen in FIG. 4 for the PEG:PVP dispersion. The endotherm associated with drug melting can clearly be discerned from the other components. Thus, it is possible to follow the kinetics of ABT-538 crystallization via DSC measurements. Crystallization kinetics were determined by heating the samples to 85° C., holding them isothermally for predetermined times followed by heating through the melting transition temperature of ABT-538. The heats of fusion were determined and ratioed against the heat of fusion of the drug melting in the physical mixture, giving the fraction crystallized.
# [4] = Isothermal calorimetry (TAM) of recrystallization at 40° C.; format: physicochemical
# Experimental: The recrystallization reactions of 30% ABT-538 in PEG or PEG:PVP (95:5) solid dispersions were monitored via isothermal calorimetry (Thermometric 2277 Calorimeter) at 40° C. Since crystallization is an exothermic process, a positive power output indicates crystallization. The magnitude of the power output at any time is proportional to the rate of crystallization. XPD was used to confirm crystallization.
# The crystallization rate was also followed via the heat associated with crystallization of ABT-538 using a isothermal calorimetry. The shapes and magnitudes of the crystallization peaks in FIG. 6 indicate that ABT-538 crystallizes more readily in the PEG matrix as compared to the PEG:PVP matrix. This stabilizing effect of PVP is also reflected in the times required for complete crystallization (time to reach baseline) which were <10 hours for PEG and >30 hours for PEG:PVP (95:5).
# [5] = XPD rate of crystallization upon storage at 25° C.; format: physicochemical
# Experimental: as §1, §2
# The figure illustrates that the fenofibrate is X-ray-amorphous within the matrix. Again, the fenofibrate is amorphous. Upon storage at 25° C., the fenofibrate begins to crystallize in the PEG 8000 matrix within 1 hour (FIG. 10). Additional crystallization follows up to 12 hours, when the experiment was terminated.
# Similar XPD patterns for the griseofulvin dispersion in PEG 8000 and 80:20 PEG 8000:PVP matrices are shown in FIGS. 12 and 13, respectively. In both instances, amorphous griseofulvin is isolated within the respective matrices. […] However, in the presence of PVP (FIG. 15), crystallization is not observed even after 15 hours under the same conditions.
# [6] = Aungst et al., Int. J. Pharm. 156, 79 (1997); cited from earlier work
# [7] = PEG 8000:PVP matrix, 30% ABT-538, 15% fenofibrate (90:10) or 15% griseofulvin (80:20)
# [8] = PEG 8000 matrix, 30% ABT-538, 15% fenofibrate or 15% griseofulvin
"time at which crystalline drug is detected (XPD) ([1]; PEG8000 alone, detected at this time and before) [h]",time held without crystalline ABT-538 present (XPD) ([1]; dispersion containing 15% PVP) [h],effect of PVP within the matrix on crystallization rate (percent crystallized from heat of fusion) [3],effect of PVP within the matrix on crystallization rate (percent crystallized from heat of fusion) ([3]; listed as ritonavir),time required for complete crystallization (time to reach baseline) ([4]; 30% ABT-538 in PEG solid dispersion) [h],time required for complete crystallization (time to reach baseline) ([4]; 30% ABT-538 in PEG:PVP (95:5) solid dispersion) [h],"time at which drug begins to crystallize (XPD) ([5]; 15% drug in PEG 8000 matrix, storage at 25° C.)","time without crystallization observed (XPD) ([5]; 15% griseofulvin in 80:20 PEG 8000:PVP, 25° C.) [h]",SMILES,"physical form of drug in the solid dispersion by XPD [2, 7]","physical form of drug in the solid dispersion by XPD [2, 8]",effect of PEG solid dispersion formulation on bioavailability [6]
≤ 233,> 272,suppresses the crystallization rate,slower,< 10,> 30,,,"CC(C)c1nc(CN(C)C(=O)NC(C(=O)NC(Cc2ccccc2)CC(O)C(Cc2ccccc2)NC(=O)OCc2cncs2)C(C)C)cs1 [ABT-538, (2S,3S,5S)-5-(N—(N—((N-methyl-N-((2-isopropyl-4-thiazolyl)-methyl)amino)carbonyl)-L-valinyl)amino-2-(N-((5-thiazolyl)methoxy-carbonyl)-amino)-1,6-diphenyl-3-hydroxyhexane]",Amorphous; also recorded: not crystalline,Amorphous; also recorded: not crystalline,
,,,,,,one,> 15,COC1=CC(=O)C[C@@H](C)[C@]12Oc1c(Cl)c(OC)cc(OC)c1C2=O [griseofulvin],amorphous,amorphous,
,,,,,,,,O=C1N(Cc2ccc(CO)cc2)[C@H](Cc2ccccc2)[C@H](O)[C@@H](O)[C@@H](Cc2ccccc2)N1Cc1ccc(CO)cc1 [DMP 323],,,unable to improve the bioavailability
